In ChEMBL document CHEMBL5143699, “Identification of novel indole derivatives as highly potent AMPK activators with anti-diabetic profiles” (Bioorg Med Chem Lett, 2022):
Values belong to the compound of their own block, whether it stands above or below them. Calls of active or inactive are those of the source. The calls are words filed in the database; no cut-off is given here.

Tests used:
[1] = target: AMPK alpha2/beta2/gamma1 (Homo sapiens) (UniProt P54646+O43741+P54619); test: Activation of human recombinant AMPK A2/B2/G1 assessed as increase in AMPK phosphorylation using FL-peptide as substrate incubated for 120 mins by EZ reader method; type: protein-complex assay
[2] = target: Cytochrome P450 2D6 (Homo sapiens, UniProt P10635); test: Inhibition of CYP2D6 in human liver microsomes using dextromethorphan as substrate; type: ADME, Microsome
[3] = Protein binding in serum (unknown origin) assessed as unbound fraction by equilibrium dialysis assay; type: ADME, cell-free
[4] = target: Cytochrome P450 2C9 (Homo sapiens, UniProt P11712); test: Inhibition of CYP2C9 in human liver microsomes using tolbutamide as substrate; type: ADME, Microsome
[5] = target: Cytochrome P450 3A4 (Homo sapiens, UniProt P08684); test: Inhibition of CYP3A4 in human liver microsomes using terfenedine as substrate; type: ADME, Microsome
[6] = […] of the compound in rat muscle at 1 mg/kg, po or 0.5 mg/kg, iv; type: ADME, organism-based
[7] = target: T1, Cytochrome P450 1A2 (Homo sapiens, UniProt P05177); test: Inhibition of CYP1A2 in human liver microsomes using 7-ethoxyresorufin as substrate; type: ADME, Microsome
T1 sequence (P05177 whole entry): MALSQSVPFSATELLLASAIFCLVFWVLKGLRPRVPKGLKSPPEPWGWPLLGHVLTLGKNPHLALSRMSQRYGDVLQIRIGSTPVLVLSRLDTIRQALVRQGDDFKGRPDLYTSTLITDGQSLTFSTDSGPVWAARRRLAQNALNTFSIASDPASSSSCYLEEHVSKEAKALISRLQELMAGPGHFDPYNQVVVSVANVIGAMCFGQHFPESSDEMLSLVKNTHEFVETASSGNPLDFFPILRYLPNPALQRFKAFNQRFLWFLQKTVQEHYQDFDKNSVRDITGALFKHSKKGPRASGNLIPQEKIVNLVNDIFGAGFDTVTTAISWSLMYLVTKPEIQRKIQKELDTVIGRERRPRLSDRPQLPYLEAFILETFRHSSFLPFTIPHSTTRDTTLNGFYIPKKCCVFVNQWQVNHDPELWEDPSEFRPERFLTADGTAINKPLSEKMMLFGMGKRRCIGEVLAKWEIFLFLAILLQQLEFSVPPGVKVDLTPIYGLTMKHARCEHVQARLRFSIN

[8] = Metabolic stability in human liver microsomes assessed as compound remaining measured after 30 mins; type: ADME, Microsome; details: read-out: Stability
[9] = Cmax in rat at 1 mg/kg, po or 0.5 mg/kg, iv; type: ADME, organism-based; parameters: dose 1 mg/kg, route po; details: in vivo
[10] = Metabolic stability in rat liver microsomes assessed as compound remaining measured after 30 mins; type: ADME, Microsome; details: read-out: Stability
[11] = target: Cytochrome P450 2C19 (Homo sapiens, UniProt P33261); test: Inhibition of CYP2C19 in human liver microsomes using mephenytoin as substrate; type: ADME, Microsome
[12] = […] of the compound in rat liver at 1 mg/kg, po or 0.5 mg/kg, iv; type: ADME, organism-based
[13] = AUC in rat at 1 mg/kg, po; type: ADME, organism-based; parameters: dose 1 mg/kg, route po; details: in vivo
[14] = target: T2, 5'-AMP-activated protein kinase subunit beta-2 (Homo sapiens, UniProt O43741); test: Activation of recombinant AMPK-beta2 (unknown origin) assessed as increase in AMPK phosphorylation by DELFIA fluorescence assay
T2 sequence (O43741 whole entry): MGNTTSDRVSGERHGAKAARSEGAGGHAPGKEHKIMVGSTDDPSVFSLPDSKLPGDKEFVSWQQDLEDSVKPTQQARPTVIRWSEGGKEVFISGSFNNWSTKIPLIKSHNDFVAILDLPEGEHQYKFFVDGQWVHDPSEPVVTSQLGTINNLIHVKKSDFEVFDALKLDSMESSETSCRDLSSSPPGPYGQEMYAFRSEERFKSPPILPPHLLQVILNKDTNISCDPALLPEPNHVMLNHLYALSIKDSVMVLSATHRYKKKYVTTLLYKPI

[15] = target: T3, 5'-AMP-activated protein kinase subunit beta-1 (Rattus norvegicus, UniProt P80386); test: Activation of rat liver AMPK-beta1 using SAMS peptide as substrate incubated for 10 mins by microplate reader assay; type: tissue-based
T3 sequence (P80386 whole entry): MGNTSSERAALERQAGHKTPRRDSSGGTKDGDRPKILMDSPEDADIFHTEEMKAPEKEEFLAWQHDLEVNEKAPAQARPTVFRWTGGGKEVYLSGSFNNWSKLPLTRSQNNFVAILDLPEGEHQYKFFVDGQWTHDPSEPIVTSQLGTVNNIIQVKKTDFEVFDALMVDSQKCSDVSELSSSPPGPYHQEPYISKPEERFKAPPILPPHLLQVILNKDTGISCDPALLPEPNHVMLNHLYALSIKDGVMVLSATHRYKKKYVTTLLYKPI

[16] = system: Mus musculus; test: Antidiabetic activity against type 2 diabetic KKAy mouse model assessed as decrease in HbA1c level administrated orally bid measured after 21 days of administration by automatic analyzer; type: functional, organism-based; details: route po, time 21.0 day, DDE = dose-dependent effect
[17] = system: Mus musculus; test: Antidiabetic activity against type 2 diabetic KKAy mouse model assessed as increase in Akt phosphorylation in skeletal muscle at 1.5 to 6 mg/kg,po bid measured on 25 to 26 days after insulin injection by ELISA; type: functional, organism-based; details: dose 1.5-6 mg/kg, time 25-26 day
[18] = system: Mus musculus; test: Antidiabetic activity against po dosed type 2 diabetic KKAy mouse model assessed as acute glucose lowering effect measured for 1 to 6 hrs; type: functional, organism-based; details: time 1-6 hrs, DDE = dose-dependent effect
[19] = target: T4, 5'-AMP-activated protein kinase (Mus musculus) (UniProt Q5EG47+Q8BRK8+Q6PAM0+O54950+Q91WG5+Q9R078+Q8BGM7); test: In vivo activation of AMPK in mouse skeletal muscle assessed as increase in ACC phosphorylation level at 0.08 to 6.75 mg/kg,po by ELISA; type: functional, organism-based; details: Skeletal muscle tissue, dose 0.08-6.75 mg/kg, DDE = dose-dependent effect
[20] = target: T4, 5'-AMP-activated protein kinase (Mus musculus); test: In vivo activation of AMPK in mouse liver assessed as increase in AMPKalpha phosphorylation level at 0.08 to 6.75 mg/kg,po by western blot method; type: functional, organism-based; details: dose 0.08-6.75 mg/kg, DDE = dose-dependent effect
[21] = system: Mus musculus; test: Antidiabetic activity against type 2 diabetic KKAy mouse model assessed as decrease in plasma glucose level administrated orally bid measured after 21 days of administration by automatic analyzer; type: functional, organism-based; details: route po, time 21.0 day, DDE = dose-dependent effect
[22] = system: Mus musculus; test: Antidiabetic activity against type 2 diabetic KKAy mouse model assessed as decrease in lipid accumulation in liver at 1.5 to 6 mg/kg,po bid measured on 25 to 26 days after insulin injection; type: functional, organism-based; details: dose 1.5-6 mg/kg, time 25-26 day

AMPK alpha2/beta2/gamma1 (Homo sapiens), sequence (P54619 whole entry, looked up, one chain of several): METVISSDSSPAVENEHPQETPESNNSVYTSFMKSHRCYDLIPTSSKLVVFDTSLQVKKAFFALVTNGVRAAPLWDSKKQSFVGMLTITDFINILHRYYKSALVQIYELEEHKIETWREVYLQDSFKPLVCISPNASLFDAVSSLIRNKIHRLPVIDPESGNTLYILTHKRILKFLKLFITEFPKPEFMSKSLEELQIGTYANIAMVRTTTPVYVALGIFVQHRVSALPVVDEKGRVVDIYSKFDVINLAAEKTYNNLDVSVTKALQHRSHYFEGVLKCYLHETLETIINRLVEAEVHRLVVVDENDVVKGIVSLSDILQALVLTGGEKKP
AMPK alpha2/beta2/gamma1 (Homo sapiens), sequence (P54646 whole entry, looked up, one chain of several): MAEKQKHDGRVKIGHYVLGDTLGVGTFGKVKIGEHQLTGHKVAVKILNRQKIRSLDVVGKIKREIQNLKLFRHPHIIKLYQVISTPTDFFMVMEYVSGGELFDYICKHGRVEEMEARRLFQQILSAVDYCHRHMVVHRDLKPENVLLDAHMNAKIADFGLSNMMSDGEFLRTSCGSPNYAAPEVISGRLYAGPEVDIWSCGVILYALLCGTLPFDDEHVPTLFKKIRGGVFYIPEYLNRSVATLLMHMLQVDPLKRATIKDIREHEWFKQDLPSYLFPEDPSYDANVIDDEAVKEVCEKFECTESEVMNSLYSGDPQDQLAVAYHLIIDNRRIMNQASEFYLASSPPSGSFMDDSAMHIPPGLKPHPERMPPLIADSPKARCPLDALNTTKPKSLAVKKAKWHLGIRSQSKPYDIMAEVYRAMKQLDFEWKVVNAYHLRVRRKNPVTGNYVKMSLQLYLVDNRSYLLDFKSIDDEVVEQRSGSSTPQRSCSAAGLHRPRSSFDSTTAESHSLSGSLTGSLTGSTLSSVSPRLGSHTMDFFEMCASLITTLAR
Cytochrome P450 2C19, sequence (P33261 whole entry): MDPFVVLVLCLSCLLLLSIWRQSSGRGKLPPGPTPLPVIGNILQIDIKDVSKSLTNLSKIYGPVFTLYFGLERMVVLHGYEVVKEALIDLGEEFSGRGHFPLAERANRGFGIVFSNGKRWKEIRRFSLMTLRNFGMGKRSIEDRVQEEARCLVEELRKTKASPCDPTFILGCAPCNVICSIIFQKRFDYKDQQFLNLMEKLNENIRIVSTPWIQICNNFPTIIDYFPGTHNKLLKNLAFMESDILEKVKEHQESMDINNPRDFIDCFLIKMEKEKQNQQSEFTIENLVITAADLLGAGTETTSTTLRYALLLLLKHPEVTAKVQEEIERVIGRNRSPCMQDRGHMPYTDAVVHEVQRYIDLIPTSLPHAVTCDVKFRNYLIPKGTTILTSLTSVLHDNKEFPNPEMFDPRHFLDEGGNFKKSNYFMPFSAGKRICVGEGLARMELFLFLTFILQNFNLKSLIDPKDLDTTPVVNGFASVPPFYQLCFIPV
Cytochrome P450 3A4, sequence (P08684 whole entry): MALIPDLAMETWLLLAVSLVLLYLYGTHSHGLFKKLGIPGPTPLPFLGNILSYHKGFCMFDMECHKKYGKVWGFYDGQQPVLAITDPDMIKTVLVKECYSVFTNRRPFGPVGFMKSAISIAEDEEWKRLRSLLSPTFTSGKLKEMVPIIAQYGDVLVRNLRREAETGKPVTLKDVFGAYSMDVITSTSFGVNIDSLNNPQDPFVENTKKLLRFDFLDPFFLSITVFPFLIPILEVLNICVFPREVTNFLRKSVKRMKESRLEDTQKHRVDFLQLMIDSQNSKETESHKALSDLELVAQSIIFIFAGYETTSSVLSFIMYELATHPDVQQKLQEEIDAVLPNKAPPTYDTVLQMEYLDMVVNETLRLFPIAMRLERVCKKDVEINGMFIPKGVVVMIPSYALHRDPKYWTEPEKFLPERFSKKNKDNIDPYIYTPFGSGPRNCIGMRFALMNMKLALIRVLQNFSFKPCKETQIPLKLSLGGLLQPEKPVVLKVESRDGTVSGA
Cytochrome P450 2C9, sequence (P11712 whole entry): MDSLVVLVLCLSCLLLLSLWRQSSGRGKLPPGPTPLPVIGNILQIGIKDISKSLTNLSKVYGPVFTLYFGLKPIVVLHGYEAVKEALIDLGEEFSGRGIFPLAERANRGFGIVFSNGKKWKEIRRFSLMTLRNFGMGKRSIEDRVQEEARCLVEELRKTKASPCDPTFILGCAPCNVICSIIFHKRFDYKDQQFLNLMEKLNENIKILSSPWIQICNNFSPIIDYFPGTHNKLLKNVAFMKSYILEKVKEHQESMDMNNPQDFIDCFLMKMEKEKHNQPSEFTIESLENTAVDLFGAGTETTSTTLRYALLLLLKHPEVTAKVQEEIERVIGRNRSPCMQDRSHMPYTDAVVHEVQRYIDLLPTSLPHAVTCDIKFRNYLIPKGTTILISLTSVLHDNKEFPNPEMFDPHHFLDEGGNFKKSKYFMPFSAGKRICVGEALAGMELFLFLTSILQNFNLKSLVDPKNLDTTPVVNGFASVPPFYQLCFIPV
Cytochrome P450 2D6, sequence (P10635 whole entry): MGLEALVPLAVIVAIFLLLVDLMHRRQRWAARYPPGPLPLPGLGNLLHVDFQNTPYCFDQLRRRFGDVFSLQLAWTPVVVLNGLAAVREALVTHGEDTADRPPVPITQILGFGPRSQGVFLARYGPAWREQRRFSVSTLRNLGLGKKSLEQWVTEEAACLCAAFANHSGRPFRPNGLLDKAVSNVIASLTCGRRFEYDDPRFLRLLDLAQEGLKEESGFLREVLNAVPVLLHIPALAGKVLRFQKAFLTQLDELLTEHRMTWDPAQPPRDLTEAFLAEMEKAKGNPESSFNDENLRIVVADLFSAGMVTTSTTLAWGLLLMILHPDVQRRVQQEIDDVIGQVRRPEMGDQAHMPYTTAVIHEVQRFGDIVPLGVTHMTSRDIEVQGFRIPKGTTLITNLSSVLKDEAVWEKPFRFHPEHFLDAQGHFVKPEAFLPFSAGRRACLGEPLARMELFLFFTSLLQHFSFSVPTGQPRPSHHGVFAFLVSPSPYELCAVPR

EC150 ([1]; filed as activator): 0.0034 µM | IC50 [2]: > 10 µM | fraction unbound [3]: 0.072 | IC50 [4]: > 10 µM | IC50 [5]: > 10 µM | Kp [6]: 0.98 | IC50 [7]: > 10 µM | remaining at 0.5 h [8]: > 99% | Cmax [9]: 44.8 ng/mL | remaining at 0.5 h [10]: 83% | IC50 [11]: > 10 µM | Kp [12]: 2.19 | AUC [13]: 111 ng·h/mL
Structure (SMILES): CS(C)(=O)=Nc1ccc(-c2ccc(-c3nc4cc(O[C@@H]5CO[C@H]6[C@@H]5OC[C@H]6O)[nH]c4cc3F)cc2)nc1

EC50 [14]: 1.3 µM
Structure (SMILES): O=C1NC2SC(Cl)=C(c3ccc4c(c3O)CCCC4)C2C(O)=C1c1ccccc1 (stereo unspecified)

EC150 [1]: > 100 µM
Structure (SMILES): Cn1c(O[C@@H]2CO[C@H]3[C@@H]2OC[C@H]3O)c(C#N)c2cc(-c3ccc(N4CCOCC4)cc3)c(Cl)cc21

EC150 ([1]; filed as activator): 0.38 µM
Structure (SMILES): N#Cc1c(O[C@@H]2CO[C@H]3[C@@H]2OC[C@H]3O)[nH]c2ccc(-c3ccc(N4CCOCC4)cc3)cc12

EC150 ([1]; filed as activator): 0.011 µM
Structure (SMILES): COc1ccc(-c2ccc(-c3nc4cc(O[C@@H]5CO[C@H]6[C@@H]5OC[C@H]6O)[nH]c4cc3F)cc2)cc1

EC50 [15]: 0.8 µM
Structure (SMILES): N#CC1=C(O)C2C(c3ccc(-c4ccccc4O)cc3)=CSC2NC1=O (stereo unspecified)

EC150 ([1]; filed as activator): 0.0073 µM | fraction unbound [3]: 0.002
Structure (SMILES): COCCOc1ccc(-c2ccc(-c3nc4cc(O[C@@H]5CO[C@H]6[C@@H]5OC[C@H]6O)[nH]c4cc3F)cc2)cc1

EC150 ([1]; filed as activator): 0.039 µM
Structure (SMILES): N#Cc1c(O[C@@H]2CO[C@H]3[C@@H]2OC[C@H]3O)[nH]c2cc(Cl)c(-c3ccc(N4CCOCC4)cc3)cc12

EC150 ([1]; filed as activator): 0.001 µM | fraction unbound [3]: 0.011 | Activity [19]: Dde | Kp [6]: 0.63 | remaining at 0.5 h [8]: 94% | Activity [20]: Dde | Cmax [9]: 130 ng/mL | remaining at 0.5 h [10]: 90% | Kp [12]: 7.14 | AUC [13]: 810 ng·h/mL
Structure (SMILES): CS(C)(=O)=Nc1ccc(-c2ccc(-c3nc4cc(O[C@@H]5CO[C@H](CO)C5)[nH]c4cc3F)cc2)cc1
Activity [16]: Dde | Activity [17]: Active | Activity [18]: Dde | Activity [21]: Dde | Activity [22]: Active

EC150 ([1]; filed as activator): 0.0019 µM
Structure (SMILES): O[C@@H]1CO[C@H]2[C@@H]1OC[C@H]2Oc1cc2nc(-c3ccc(N4CCOCC4)cc3)c(Cl)cc2[nH]1

EC150 ([1]; filed as activator): 0.0053 µM
Structure (SMILES): O[C@@H]1CO[C@H]2[C@@H]1OC[C@H]2Oc1cc2nc(-c3ccc(N4CCOCC4)cc3)c(F)cc2[nH]1

EC150 ([1]; filed as activator): 0.087 µM
Structure (SMILES): N#Cc1c(O[C@@H]2CO[C@H]3[C@@H]2OC[C@H]3O)[nH]c2cc(Cl)c(-c3ccc(N4CCOCC4)cc3)nc12

EC150 ([1]; filed as activator): 0.001 µM | IC50 [2]: > 10 µM | fraction unbound [3]: 0.016 | IC50 [4]: > 10 µM | IC50 [5]: > 10 µM | Kp [6]: 0.61 | IC50 [7]: > 10 µM | remaining at 0.5 h [8]: > 99% | Cmax [9]: 68.7 ng/mL | remaining at 0.5 h [10]: 91% | IC50 [11]: > 10 µM | Kp [12]: 2.4 | AUC [13]: 288 ng·h/mL
Structure (SMILES): CS(C)(=O)=Nc1ccc(-c2ccc(-c3nc4cc(O[C@@H]5CO[C@H]6[C@@H]5OC[C@H]6O)[nH]c4cc3F)cc2)cc1

EC150 ([1]; filed as activator): 0.002 µM | fraction unbound [3]: 0.01 | Kp [6]: 0.67 | remaining at 0.5 h [8]: 98% | Cmax [9]: 43 ng/mL | remaining at 0.5 h [10]: 86% | IC50 [11]: 3.7 µM | Kp [12]: 3.34 | AUC [13]: 251 ng·h/mL
Structure (SMILES): O=S1(=Nc2ccc(-c3ccc(-c4nc5cc(O[C@@H]6CO[C@H]7[C@@H]6OC[C@H]7O)[nH]c5cc4F)cc3)cc2)CCCC1

EC150 ([1]; filed as activator): 0.017 µM
Structure (SMILES): O[C@@H]1CO[C@H]2[C@@H]1OC[C@H]2Oc1cc2nc(-c3ccc(-c4ccccc4)cc3)c(F)cc2[nH]1

EC150 ([1]; filed as activator): 0.0018 µM | fraction unbound [3]: 0.01 | IC50 [11]: 7.4 µM
Structure (SMILES): O=C(c1ccc(-c2ccc(-c3nc4cc(O[C@@H]5CO[C@H]6[C@@H]5OC[C@H]6O)[nH]c4cc3F)cc2)cc1)N1CCCC1

EC150 ([1]; filed as activator): 0.016 µM
Structure (SMILES): COCCOc1ccc(-c2ccc(-c3nc4cc(O[C@@H]5CO[C@H]6[C@@H]5OC[C@H]6O)[nH]c4cc3F)cc2)cn1
